# Data reported in publication PMC7179205, “An Improved Synthesis of Key Intermediate to the Formation of Selected Indolin-2-Ones Derivatives Incorporating Ultrasound and Deep Eutectic Solvent (DES) Blend of Techniques, for Some Biological Activities and Molecular Docking Studies” (Molecules, 2020).
# “Also recorded” adds a separate entry of the source. Where two headings read alike, the source gives them in different places.
# Key:
# Rat Paw Edema = assay: carrageenan-induced hind paw edema method (anti-inflammatory activity); format: in vivo, Wistar albino rats; details: for inhibition in vivo at 10 mg/kg: Rattus norvegicus, po; for inhibition in vivo at 10 mg/kg / anti-inflammatory activity (in words) / % Age Inhibition of Rat Paw Edema, 4 H: oral dose 10 mg/kg; for inhibition in vivo at 10 mg/kg / % Age Inhibition of Rat Paw Edema, 4 H: mean ± SEM; for anti-inflammatory activity (in words): compared with standard indomethacin; for Potency (anti-inflammatory): relative to indomethacin = 1.00
# Protocol: The anti-inflammatory activity of the synthesized compounds (4a–n) was evaluated by the carrageenan-induced paw edema method. An oral dose of 10 mg/kg was used for compounds and compared with the standard. Anti-inflammatory activity was accessed through percentage inhibition after 2 and 4 h (Table 1).
# Compounds produced were assessed for their anti-inflammatory activity using the carrageenan-induced hind paw edema method. The anti-inflammatory activity was carried out using Wistar albino rats of either sex (150–220 g) using a Digital Plethysmometer (Model No. 7140, UGO BASILE). The edema was induced by using 1% carrageenan solution. Indomethacin was used as a standard drug. The anti-inflammatory activity of the standard drug and tested compounds was determined at a dose of 10 mg/kg body weight. The animals were divided into groups containing six animals each and the initial paw volume of each rat was noted by the NaCl displacement method. One group was kept as control, one as standard, and the rest of the groups of compounds were to be tested. To the control group, 1% CMC solution was administered p.o. To the standard group, the standard drug was administered orally. To the test group, tested compounds were administered orally. After 60 min of the 1% CMC solution/standard drug/test compound administration, 0.1 ml of 1% (w/v) carrageenan was injected in the plantar region of the hind limb (right) of all the rats in each group including the control group. The paw volume was again measured after the time interval of 2 and 4 h. Using the following formula, inflammation was calculated as percentage inhibition for the test and reference compounds
# (Final foot volume of control—final foot volume of std./test) × 100 / final foot volume of control)
# [1] = system: acetic acid-induced writhing; assay: acetic acid-induced writhing method (analgesic activity); format: in vivo, Swiss albino mice; details: for inhibition in vivo at 10 mg/kg: Mus musculus, read-out: % Analgesic Activity; for Potency (analgesic): relative to indomethacin = 1.00, 10 mg/kg; for Mean with ± SEM: writhes counted for 15 min; for analgesic activity (in words): compared with standard indomethacin
# Protocol: All the tested compounds and standard drugs are evaluated at 10 mg/kg oral dose.
# The analgesic activity of the tested compounds was carried out by acetic acid-induced writhing method as given in the literature using Swiss albino mice of either sex (25–35 g). The writh were induced in the albino mice using an intraperitoneal injection of 1% acetic acid solution. The standard drug indomethacin and test compounds were evaluated at a concentration of 10 mg/kg of the body weight. The animals were divided into groups and each group consisted of six animals. One group was kept as control, one as standard, and other as test groups. To the control group, 0.1% CMC solution was administered p.o; to the standard group, the standard drug was administered orally, and to the test group, test compounds were administered orally. After 60 min of the 0.1% CMC solution/standard drug/tested compound administration, 0.1 ml of 1% (v/v) acetic acid solution in distilled water was injected intraperitoneally in all the mice in each group including the control group. The writhing (a contraction of the abdomen, turning of trunk, and extension of hind limbs) was counted after 5 min of acetic acid administration and were counted for a period of 15 min. The percentage of analgesic activity was calculated using the following formula.
# (Mean wriths of control—mean wriths of std./test) / mean wriths of control) × 100
# [2] = 2 h, 2 h, read-out: % Age Inhibition of Rat Paw Edema, 2 H
# [3] = 4 h, 4 h, read-out: % Age Inhibition of Rat Paw Edema, 4 H
Structure (SMILES),melting point [°C],inhibition in vivo at 10 mg/kg (Rat Paw Edema; [2]) [%],inhibition in vivo at 10 mg/kg (Rat Paw Edema; [3]) [%],anti-inflammatory activity (in words) (Rat Paw Edema),Potency (anti-inflammatory) (Rat Paw Edema; 10 mg/kg),"inhibition in vivo at 10 mg/kg ([1]; oral dose 10 mg/kg, mean ± SEM) [%]",Potency (analgesic) [1],Mean with ± SEM ([1]; oral dose 10 mg/kg),"% Age Inhibition of Rat Paw Edema, 4 H (Rat Paw Edema; 4 h, 10 mg/kg) [%]",anti-inflammatory activity (in words) (Rat Paw Edema; 10 mg/kg),inhibition in vivo at 10 mg/kg ([1]; po) [%],analgesic activity (in words) ([1]; oral dose 10 mg/kg)
"O=C1C(=NNc2nc(-c3cc4ccccc4oc3=O)cs2)c2ccccc2N1CNc1ccccc1 [Compound 4a, 3-{[4-(2-Oxo-2H-chromen-3-yl)-thiazol-2-yl]-hydrazono}-1-phenylaminomethyl-1,3-dihydro-indol-2-one]",245 to 247,38.29 ± 0.016,5.57 ± 0.041,negligible anti-inflammatory activity,0.06,47.5 ± 0.707,0.64,17.00 ± 0.2582,,,,
"O=C1C(=NNc2nc(-c3cc4ccccc4oc3=O)cs2)c2ccccc2N1CNc1ccc(F)cc1 [Compound 4b, 1-[(4-Fluoro-phenylamino)-methyl]-3-{[4-(2-oxo-2H-chromen-3-yl)-thiazol-2-yl]-hydrazono}-1,3-dihydro-indol-2-one]",242 to 244,59.3 ± 0.73,45.81 ± 0.069,,0.55,25.9 ± 0.58,0.35,24.00 ± 0.3651,,,,
"O=C1C(=NNc2nc(-c3cc4ccccc4oc3=O)cs2)c2ccccc2N1CNc1ccc(Br)cc1 [Compound 4d, 1-[(4-Bromo-phenylamino)-methyl]-3-{[4-(2-oxo-2H-chromen-3-yl)-thiazol-2-yl]-hydrazono}-1,3-dihydro-indol-2-one]",241 to 243,51.92 ± 0.337,6.98 ± 0.315,negligible anti-inflammatory activity,0.08,42.9 ± 0.71,0.58,18.50 ± 0.4282,,,,
"O=C1C(=NNc2nc(-c3cc4ccccc4oc3=O)cs2)c2ccccc2N1CNc1ccccc1[N+](=O)[O-] [Compound 4e, 1-[(2-Nitro-phenylamino)-methyl]-3-{[4-(2-oxo-2H-chromen-3-yl)-thiazol-2-yl]-hydrazono}-1,3-dihydro-indol-2-one]",244 to 246,62.24 ± 0.08,48.6 ± 0.09,,0.59,47.9 ± 1,0.65,16.88 ± 0.222,,,,
"O=C1C(=NNc2nc(-c3cc4ccccc4oc3=O)cs2)c2ccccc2N1CNc1ccc([N+](=O)[O-])cc1[N+](=O)[O-] [Compound 4g, 1-[(2,4-Dinitro-phenylamino)-methyl]-3-{[4-(2-oxo-2H-chromen-3-yl)-thiazol-2-yl]-hydrazono}-1,3-dihydro-indol-2-one]",247 to 249,53.57 ± 0.16,77.9,,0.94,,0.51,20.09 ± 0.3561,77.94 ± 0.184,good anti-inflammatory activity; also recorded: significant anti-inflammatory activity,38 ± 1,
"O=C1C(=NNc2nc(-c3cc4ccccc4oc3=O)cs2)c2ccccc2N1CNn1cnnc1 [Compound 4h, 3-{[4-(2-Oxo-2H-chromen-3-yl)-thiazol-2-yl]-hydrazono}-1-([1,2,4]triazol-4-ylaminomethyl)-1,3-dihydro-indol-2-one]",236 to 238,35.39 ± 0.273,64.69 ± 0.245,,0.78,26.5 ± 0.317,0.35,23.83 ± 0.3073,,,,steep decrease in analgesic activity
"O=C1C(=NNc2nc(-c3cc4ccccc4oc3=O)cs2)c2ccccc2N1CNc1ccncc1 [Compound 4j, 3-{[4-(2-Oxo-2H-chromen-3-yl)-thiazol-2-yl]-hydrazono}-1-(pyridine-4-ylaminomethyl)-1,3-dihydro-indol-2-one]",237 to 239,53.81 ± 0.12,77.9,,0.94,47.14 ± 0.402,0.64,17.13 ± 0.539,,good anti-inflammatory activity; also recorded: significant anti-inflammatory activity,,
"O=C1C(=NNc2nc(-c3cc4ccccc4oc3=O)cs2)c2ccccc2N1CNc1cccnc1 [Compound 4k, 3-{[4-(2-Oxo-2H-chromen-3-yl)-thiazol-2-yl]-hydrazono}-1-(pyridine-3-ylaminomethyl)-1,3-dihydro-indol-2-one]",231 to 233,38.09 ± 0.214,70.8,significant anti-inflammatory activity,0.86,7.96 ± 0.432,0.10,29.83 ± 0.3073,70.75 ± 0.165,,,least analgesic activity
"O=C1C(=NNc2nc(-c3cc4ccccc4oc3=O)cs2)c2ccccc2N1CNc1ccc([N+](=O)[O-])cc1 [Compound 4l, 1-[(4-Nitro-phenylamino)-methyl]-3-{[4-(2-oxo-2H-chromen-3-yl)-thiazol-2-yl]-hydrazono}-1,3-dihydro-indol-2-one]",241 to 243,54.76 ± 0.228,80.9,,0.98,44.98 ± 0.336,0.61,17.83 ± 0.3079,80.94 ± 0.149,good anti-inflammatory activity; also recorded: highest anti-inflammatory activity,,
"Cc1ccc(NCN2C(=O)C(=NNc3nc(-c4cc5ccccc5oc4=O)cs3)c3ccccc32)cc1 [Compound 4m, 3-{[4-(2-Oxo-2H-chromen-3-yl)-thiazol-2-yl]-hydrazono}-1-(p-tolylamino-methyl)-1,3-dihydro-indol-2-one]",244 to 246,53.27 ± 0.183,78.4,,0.95,32.6 ± 0.845,0.44,21.83 ± 0.2051,78.42 ±0.183,good anti-inflammatory activity; also recorded: significant anti-inflammatory activity; also recorded: better anti-inflammatory activity,,less analgesic activity
